Data taken from ChEMBL document CHEMBL1150492, “Topliss approach to the synthesis of biologically active substituted N-benzoyl taxol analogues” (1994).

What was measured:
[1] = In vitro effect on microtubule assembly relative to that of Taxol, expressed as ED50/ED50 (Taxol=1); assay type: functional
B16 = assay: In vitro effect on B16 melanoma cytotoxicity relative to that of Taxol, expressed as ED50/ED50 (Taxol=1); assay type: functional, Mus musculus

| Structure (SMILES) | ED50 ratio [1] | ED50 ratio (B16) |
| --- | --- | --- |
| CC(=O)O[C@H]1C(=O)[C@@]2(C)[C@H]([C@H](OC(=O)c3ccccc3)[C@]3(O)C[C@H](OC(=O)[C@H](O)[C@@H](NC(=O)c4ccc(C)cc4)c4ccccc4)C(C)=C1C3(C)C)[C@]1(OC(C)=O)CO[C@@H]1C[C@@H]2O | 1.6 | 1.4 |
| CC(=O)O[C@H]1C(=O)[C@@]2(C)[C@H]([C@H](OC(=O)c3ccccc3)[C@]3(O)C[C@H](OC(=O)[C@H](O)[C@@H](NC(=O)c4ccc(F)cc4)c4ccccc4)C(C)=C1C3(C)C)[C@]1(OC(C)=O)CO[C@@H]1C[C@@H]2O | 1.2 | 4.3 |
| CC(=O)O[C@H]1C(=O)[C@@]2(C)[C@H]([C@H](OC(=O)c3ccccc3)[C@]3(O)C[C@H](OC(=O)[C@H](O)[C@@H](N)c4ccccc4)C(C)=C1C3(C)C)[C@]1(OC(C)=O)CO[C@@H]1C[C@@H]2O | 21 |  |
| CC(=O)O[C@H]1C(=O)[C@@]2(C)[C@H]([C@H](OC(=O)c3ccccc3)[C@]3(O)C[C@H](OC(=O)[C@H](O)[C@@H](NC(=O)c4cccc(Cl)c4)c4ccccc4)C(C)=C1C3(C)C)[C@]1(OC(C)=O)CO[C@@H]1C[C@@H]2O | 2 | 1.8 |
| CC(=O)O[C@H]1C(=O)[C@@]2(C)[C@H]([C@H](OC(=O)c3ccccc3)[C@]3(O)C[C@H](OC(=O)[C@H](O)[C@@H](NC(=O)c4ccc([N+](=O)[O-])cc4)c4ccccc4)C(C)=C1C3(C)C)[C@]1(OC(C)=O)CO[C@@H]1C[C@@H]2O | 2 | 20.7 |
| CC(=O)O[C@H]1C(=O)[C@@]2(C)[C@H]([C@H](OC(=O)c3ccccc3)[C@]3(O)C[C@H](OC(=O)[C@H](O)[C@@H](NC(=O)c4ccccc4)c4ccccc4)C(C)=C1C3(C)C)[C@]1(OC(C)=O)CO[C@@H]1C[C@@H]2O [PACLITAXEL] | 1 | 1 |
| COc1ccc(C(=O)N[C@@H](c2ccccc2)[C@@H](O)C(=O)O[C@H]2C[C@@]3(O)[C@@H](OC(=O)c4ccccc4)[C@@H]4[C@]5(OC(C)=O)CO[C@@H]5C[C@H](O)[C@@]4(C)C(=O)[C@H](OC(C)=O)C(=C2C)C3(C)C)cc1 | 0.6 | 1.3 |
| CC(=O)O[C@H]1C(=O)[C@@]2(C)[C@H]([C@H](OC(=O)c3ccccc3)[C@]3(O)C[C@H](OC(=O)[C@H](O)[C@@H](NC(=O)c4ccc(Cl)cc4)c4ccccc4)C(C)=C1C3(C)C)[C@]1(OC(C)=O)CO[C@@H]1C[C@@H]2O | 2.4 | 1.5 |
| CC(=O)O[C@H]1C(=O)[C@@]2(C)[C@H]([C@H](OC(=O)c3ccccc3)[C@]3(O)C[C@H](OC(=O)[C@H](O)[C@@H](NC(=O)c4ccc(Cl)c(Cl)c4)c4ccccc4)C(C)=C1C3(C)C)[C@]1(OC(C)=O)CO[C@@H]1C[C@@H]2O | 2.1 | 10.6 |
| CC(=O)O[C@H]1C(=O)[C@@]2(C)[C@H]([C@H](OC(=O)c3ccccc3)[C@]3(O)C[C@H](OC(=O)[C@H](O)[C@@H](NC(=O)c4ccccc4C)c4ccccc4)C(C)=C1C3(C)C)[C@]1(OC(C)=O)CO[C@@H]1C[C@@H]2O | 1.9 | 7.5 |
| CC(=O)O[C@H]1C(=O)[C@@]2(C)[C@H]([C@H](OC(=O)c3ccccc3)[C@]3(O)C[C@H](OC(=O)[C@H](O)[C@@H](NC(=O)c4cccc(N(C)C)c4)c4ccccc4)C(C)=C1C3(C)C)[C@]1(OC(C)=O)CO[C@@H]1C[C@@H]2O | 1.4 | 1.6 |
